Series [1] deals with T1, purified human renal dehydropeptidase (Homo sapiens, UniProt P16444).
T1 sequence (P16444 17-411): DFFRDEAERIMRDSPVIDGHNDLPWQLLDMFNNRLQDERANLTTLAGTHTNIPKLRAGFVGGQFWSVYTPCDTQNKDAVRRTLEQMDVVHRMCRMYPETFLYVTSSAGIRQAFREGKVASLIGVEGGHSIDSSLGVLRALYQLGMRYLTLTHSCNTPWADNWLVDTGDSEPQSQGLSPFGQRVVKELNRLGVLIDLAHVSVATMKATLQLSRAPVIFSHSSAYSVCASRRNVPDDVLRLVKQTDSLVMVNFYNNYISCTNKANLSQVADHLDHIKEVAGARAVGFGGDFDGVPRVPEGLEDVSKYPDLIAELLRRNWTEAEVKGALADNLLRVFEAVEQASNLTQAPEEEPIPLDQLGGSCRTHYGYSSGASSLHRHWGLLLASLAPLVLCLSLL
In words: Stability test against renal dehydropeptidase. It counts as in vitro ADME. Particulars: for half-life at 100 µM: human, purified renal dehydropeptidase, pH 7. As to the method:
Method: 0.325 μ/ml (final concentration) of purified human renal dehydropeptidase and 100 μM (final concentration) of each test compound were heated to 37° C. in 50 mM of Tris/HCl buffer (pH 7.0) and samples were collected at planned hours. Remaining amounts of the compound in the samples were analyzed quantitatively and the half-life period of each compound was calculated.

The test system of the next series is S. aureus Smith. In words: Therapeutic effect on the experimental infection in mice (S. aureus Smith). It is filed as in vivo. Particulars: Staphylococcus aureus, sc, 120 h, S. aureus Smith 3.8 × 10^6 colony forming unit, compound subcut.
Another series is described as follows: Acute toxicity test. Particulars: mouse, in vivo. From the text:
Among the novel compounds as obtained according to the present invention, the compound (27) was selected to conduct an acute toxicity test. Mice of ICR strain (4-weeks aged), being used as an experimental animal, were given the compound through oral and intravenous routes.

Another series relates to E. coli KC-14. In words: Therapeutic effect on the experimental infection in mice (E. coli KC-14). It is filed as in vivo. Particulars: Escherichia coli, E. coli KC-14 4.8 × 10^5 colony forming unit intraperitoneally, survival 5 days later, male ICR mice. As to the method:
Among the novel compounds as obtained according to the present ivention, the compound (27) was used to carry out a therapy experiment with infected animals. With male mice of ICR strain (5-weeks aged, weighing from 23 to 27 g) being employed as an experimental animal, E. coli KC-14 was inoculate intraperitoneally to the mice, and, 2 hours later, the compound (27) was administered subcutaneously or orally.

3 compounds from US5116832A, “Penem derivatives production and use thereof” (Suntory Limited, priority 1986, dated 1992) can be followed below.

For orientation: half-life means the time needed for the level to fall by half in the phase considered. The term ED50 denotes the midpoint of the dose-response relation. Low readings indicate greater potency, high ones weaker potency.

In series [1], `CCSC1=C(C(=O)O)N2C(=O)[C@H]([C@@H](C)O)[C@H]2S1` [Sch 29482] showed a half-life at 100 µM of 86.4 min.
For the compound `C[C@@H](O)[C@H]1C(=O)N2C(C(=O)O)=C(SCCN=CN)C[C@H]12` [Imipenem], the “Remaining amount after 9 hours” value in series [1] (100 μM test compound, human renal dehydropeptidase, 37° C., 50 mM Tris/HCl buffer pH 7.0, 9 hours) came out at 14.7 µg/mL. Also, the half-life at 100 µM in series [1] was 181 min.
In the case of `C[C@@H](O)[C@H]1C(=O)N2C(C(=O)O)=C(CC3CCOC3)S[C@H]12` (stereo partly shown) [Compound 27], the ED50 in the series with S. aureus Smith worked out at 1.11 mg/kg; in the series with E. coli KC-14 (KC14, 120 h, compound oral 2 hours later) it was 9.5 mg/kg; in the series on E. coli KC-14 (KC14, ip, 120 h, compound subcut. 2 hours later), 3 mg/kg. Moreover, the “survival in acute toxicity test” value in “Acute toxicity test” (iv) and in the series “Acute toxicity test” (po) was “all found to survive” each time. In series [1], the “stability against renal dehydropeptidase (in words)” value is “more stable than Sch 29482 and Imipenem”. In series [1], this compound showed a half-life at 100 µM of 229 min.
